Test [1] relates to homozygous PPO2_F4201 sunflower (HA452-M). The experiment in a line: Greenhouse PPO cross-tolerance trial, mutant (Example 7). Type of test: in vivo. The protocol: (§1) In August of 2021, a greenhouse herbicide trial was carried out in Zwijnaarde, Belgium. A homozygous PPO2_F4201 sunflower seed lot (HA452-M), and a wild type (WT) sunflower line (RHA473) were used in the greenhouse trial. Sixteen homozygous PPO2_F4201 mutant plants and six WT plants were sown and treated with each herbicide. […]

The subject of test [2] is wild type (WT) sunflower line (RHA473). The experiment in a line: Greenhouse PPO cross-tolerance trial, wild type (Example 7). Type of test: in vivo. The protocol:
as §1

For test [3], the system named is Wild Type (WT) sunflower line. The experiment in a line: Field PPO cross-tolerance trial, wild type (Example 8). It counts as in vivo. The settings on record: for Phytotoxicity (%) Wild Type (WT) 6DAT / Phytotoxicity (%) Wild Type (WT) 11DAT / Phytotoxicity (%) Wild Type (WT) 14DAT: MSO 1% v/v. On the procedure: (§2) A field trial was carried out to assess PPO cross-tolerance in non-introgressed, selfed, homozygous PPO2_F4201 mutants, as well as to assess tolerance differences using increasing rates of herbicides listed in Table 5. The field trial was done in Utrera, Spain, in September of 2021.
(§3) Herbicide treatments (Table 5) were applied in the field when plants had the BBCH12-14 growth stage (2-4 leaves). The field trial design was the randomized complete block design, and 1 replication was considered due to limitation in seed availability. Two entries were used in the field trial, the WT line and the PPO2_F4201 mutant. The experimental plot consisted of 1 entry per plot and 1 row per entry.
(§4) Phytotoxicity of mutant and WT entries was recorded over time, at 6, 11 and 14 DAT, where 100% phytotoxicity indicates complete control (dead plants), and 0% phytotoxicity indicates no control or alive plants without any herbicide injury.

Test [4] relates to PPO2_F420I Mutant sunflower. The experiment in a line: Field PPO cross-tolerance trial, mutant (Example 8). It counts as in vivo. Conditions: MSO 1% v/v. The protocol:
as §2, §3, §4

The next test addresses wild-type PPO2 enzyme (Helianthus annuus, UniProt A0A251TWC2). The experiment in a line: In vitro PPO inhibition assay, wild type enzyme (Example 5). Type of test: biochemical, sunflower. An excerpt:
(§5) To test whether the PPO2_F383I is the main cause of the observed saflufenacil tolerance, we used an in vitro to compare the inhibition potency (IC50) of different PPO inhibiting herbicides between wild-type and mutant PPO2 enzyme. The in vitro assay assesses the oxidation of protoporphyrinogen IX to protoporphyrin IX, catalyzed by the PPO enzyme. Both the wild type and mutant PPO2 proteins were heterologously expressed in E. coli and purified. Purified protein was mixed with different concentrations of the herbicide ranging from 10^−5M to 10^−11M and protein activity was measured. Protein activity is defined as the fluorescence per minute that the reaction generates. In the reaction, the purified PPO enzyme is mixed with substrate protoporphyrinogen IX and the herbicide. The product of the reaction is excited at 405 nm and produces a fluorescence at 630 nm which we detect. IC50 (in Mol) and tolerance factor were calculated.

The target of test [5] is PPO2_F383I mutant PPO2 enzyme (Helianthus annuus, UniProt A0A251TWC2, F383I). The experiment in a line: In vitro PPO inhibition assay, mutant enzyme (Example 5). It counts as biochemical, sunflower.
Chain of PPO2_F383I mutant PPO2 enzyme (Helianthus annuus, UniProt A0A251TWC2, F383I) (A0A251TWC2 entry or part of it F383I): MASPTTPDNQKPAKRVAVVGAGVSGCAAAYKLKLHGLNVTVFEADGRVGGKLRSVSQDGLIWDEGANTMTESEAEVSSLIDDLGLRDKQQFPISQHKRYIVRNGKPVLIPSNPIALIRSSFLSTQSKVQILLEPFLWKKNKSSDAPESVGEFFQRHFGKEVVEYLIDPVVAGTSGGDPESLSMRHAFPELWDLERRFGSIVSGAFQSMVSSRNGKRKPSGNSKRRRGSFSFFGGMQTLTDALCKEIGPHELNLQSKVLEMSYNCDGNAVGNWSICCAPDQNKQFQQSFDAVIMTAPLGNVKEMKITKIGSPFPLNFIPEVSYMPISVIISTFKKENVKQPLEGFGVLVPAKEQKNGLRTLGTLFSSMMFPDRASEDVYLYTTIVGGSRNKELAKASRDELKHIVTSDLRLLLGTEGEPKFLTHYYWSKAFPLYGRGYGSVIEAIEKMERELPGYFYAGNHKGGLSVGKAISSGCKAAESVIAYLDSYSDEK
Description: as §5

Test [6] concerns PPO2_F383I mutant PPO2 enzyme. The description is as above. The settings on record: PPO2_F383I versus wild type IC50. It counts as biochemical, sunflower.
Description: as §5

The text below walks through data of patent US20250000043A1, “NON-TRANSGENIC SUNFLOWER PLANTS HAVING INCREASED TOLERANCE TO HERBICIDES” (BASF Agricultural Solutions Seed US LLC, priority 2021, published 2025).

Where two headings read alike, the source gives them in different places.

Chain of wild-type PPO2 enzyme (A0A251TWC2 entry or part of it): as the sequence (A0A251TWC2 entry or part of it F383I) above, with I383F counted along it

On to `C#CCN1C(=O)COc2cc(F)c(N3C(=O)C4=C(CCCC4)C3=O)cc21` [Flumioxazin], for which the “recovery of PPO2_F4201 plants after early phytotoxicity at 4 DAT” value in test [1] (10 DAT) was “consistent survival and recovery”. Moreover, the “survival of PPO2_F4201 plants” value in test [1] (all rates tested, MSO 1% v/v) was “survived at all rates”. Moreover, the “surviving WT plants” value in test [2] (4 g/ha, 10 DAT) is “one”. Besides, the “phytotoxicity score of WT plants” value in test [2] (dose as low as 4 g/ha, greenhouse) was 90-100%. In test [3] (45 g a.i./ha), the “Phytotoxicity (%) Wild Type (WT) 6DAT” value is recorded as 80%, the “Phytotoxicity (%) Wild Type (WT) 11DAT” value is given as 75% and the “Phytotoxicity (%) Wild Type (WT) 14DAT” value worked out at 75%. Also, in test [3] (55 g a.i./ha), the “Phytotoxicity (%) Wild Type (WT) 6DAT” value is on record as 80%, the “Phytotoxicity (%) Wild Type (WT) 11DAT” value came to 70% and the “Phytotoxicity (%) Wild Type (WT) 14DAT” value was 70%. In addition, in test [3] (65 g a.i./ha), the “Phytotoxicity (%) Wild Type (WT) 6DAT” value was 85%, the “Phytotoxicity (%) Wild Type (WT) 11DAT” value came out at 80% and the “Phytotoxicity (%) Wild Type (WT) 14DAT” value is reported as 80%. Moreover, the WT control level in test [3] (across flumioxazin rates (45, 55, 65 g a.i./ha)) is reported as 75-80%. Further, in test [4] (45 g a.i./ha), the “Phytotoxicity (%) PPO2_F420I Mutant 6DAT” value is listed as 20%, the “Phytotoxicity (%) PPO2_F420I Mutant 11DAT” value is 20% and the “Phytotoxicity (%) PPO2_F420I Mutant 14DAT” value worked out at 10%. In test [4] (55 g a.i./ha), the “Phytotoxicity (%) PPO2_F420I Mutant 6DAT” value was determined as 30%, the “Phytotoxicity (%) PPO2_F420I Mutant 11DAT” value turned out to be 25% and the “Phytotoxicity (%) PPO2_F420I Mutant 14DAT” value is on record as 15%. Also, in test [4] (65 g a.i./ha), the “Phytotoxicity (%) PPO2_F420I Mutant 6DAT” value came to 30%, the “Phytotoxicity (%) PPO2_F420I Mutant 11DAT” value came to 30% and the “Phytotoxicity (%) PPO2_F420I Mutant 14DAT” value is listed as 20%.

Take `COC(=O)CCNC(=O)C(C)Sc1cc(-n2c(=O)cc(C(F)(F)F)n(C)c2=O)c(F)cc1Cl` (centres unmarked) [Tiafenacil]: the IC50 (in general, the concentration that inhibits the measured activity by half) at wild-type PPO2 enzyme (purified enzyme expressed in E. coli, herbicide 10^-5 M to 10^-11 M, read-out: Wild type IC50) was determined as 0.93 nM; in test [5] (purified enzyme expressed in E. coli, herbicide 10^-5 M to 10^-11 M, read-out: PPO2_F383I IC50) it was 1300 nM. The compound also yielded a Tolerance factor in test [6] of 1398.

Turning to `C#CCN1C(=O)C(F)(F)Oc2cc(F)c(-n3c(=O)n(C)c(=S)n(C)c3=O)cc21` [Trifludimoxazin (Tirexor ™), 1,5-dimethyl-6-thioxo-3-(2,2,7-trifluoro-3-oxo-4-(prop-2-ynyl)-3,4-dihydro-2H-benzo[b][1,4]oxazin-6-yl)-1,3,5-triazinane-2,4-dione], the IC50 is 1.4 nM on wild-type PPO2 enzyme and 4560 nM in test [5]. Besides, the Tolerance factor in test [6] is listed as 3257.
